Test results published in patent publication US10933053B2, “Treating infections with ceftolozane/tazobactam in subjects having impaired renal function” (MERCK SHARP & DOHME CORP., priority 2013, dated 2021).
Values joined by “and” are separate entries in the source; they are usually repeats but may differ in a detail not shown here. Equal values may be shown once. Read-outs that look alike come from different tables or passages of the source.

Key:
[1] = set-up: species or system human
From the text: Phoenix™ Non Linear Mixed Effects (NLME) version 1.2 (Pharsight Corporation, Certara USA, Inc., 9666 Olive Blvd., Suite 425, St. Louis, Mo. 63132 USA) with the extended least squares first order conditional estimation (FOCE-ELS) was used for population PK modeling and SAS® 9.3 (SAS Institute Inc., 100 SAS Campus Drive, Cary, N.C. 27513-2414, USA) with finite element method (FEM) was used for Monte Carlo simulation. R (2.15.0) and SAS® 9.3 were used for data management, statistical summaries and table/figures generation.
No other structural model was further tested unless necessary. Ceftolozane or tazobactam plasma concentration-time data with hemodialysis were then included and hemodialysis was tested as a covariate effect on both clearance and volume of distribution for the central compartment. The final model was selected based on the stability of the model, reliability and interpretability of the parameter estimates and the goodness-of-fit plots.
The population PK model for ceftolozane was developed via a 2-step process. First, the ceftolozane plasma concentrations without hemodialysis (first dose) were modeled and best described with a 2-compartment disposition model (FIG. 15) plus a proportional residual error model. The between-subject variability was reliably estimable on all four PK parameters CL, Vc, CL2 and V2. When the ceftolozane plasma concentrations following the second dose with hemodialysis were included, the above model, with the addition of a dichotomous covariate and a between-subject variability for the effect of hemodialysis, was the best to fit the combined data.
Similar to ceftolozane, tazobactam plasma concentrations without hemodialysis (first dose) were first modeled and well described with a 2-compartment disposition model (FIG. 15) plus a proportional residual error model. The between-subject variability was reliably estimable on all four PK parameters CL, Vc, CL2 and V2. When the tazobactam plasma concentrations following the second dose were included, the model with hemodialysis evaluated as a dichotomous covariate with a between-subject variability was the best to fit all the combined data. […] (17)
Ceftolozane/tazobactam plasma concentrations collected from 6 patients with ESRD following a single dose without hemodialysis and a second dose with hemodialysis were used to develop a population PK model (Phoenix™ Non Linear Mixed Effects [NLME]).
A 2-compartment disposition model was used to fit the ceftolozane or tazobactam plasma concentration-time data without hemodialysis and to test the between-subject variability and residual variability. Ceftolozane or tazobactam plasma concentration-time data with hemodialysis were then included and hemodialysis was tested as a covariate effect on both clearance and volume of distribution for the central compartment.

[2] = clinical; conditions: human, in vivo; for Tmax / clearance / Vd / half-life: both sexes; for clearance: CL; for clearance / Vd: mean (CV %); for Vd: Vss; for half-life: t1/2, mean (CV %); for AUC higher in females compared to males / CL, mean (CV %) / Vss, mean (CV %) / t1/2, mean (CV %) / tmax, median (minimum, maximum): both
Description: This TQT study was a single-center, prospective, randomized, double-blind, double-dummy, placebo and active controlled, 4-way crossover study that evaluated a single therapeutic 1.5 g and a single supratherapeutic 4.5 g dose of ceftolozane/tazobactam compared with placebo. Moxifloxacin 400 mg, given orally, was used as a positive control. All subjects received study drug on 4 dosing days (Day 1, Day 5, Day 9, and Day 13) in a crossover fashion with a 3-day wash-out period between doses. Healthy men and women were randomized on a 1:1:1:1 basis to 1 of 4 dosing sequences.
Electrocardiograms were recorded (triplicate measurements) over 24 hours on Day 1, Day 5, Day 9, and Day 13 using a 12-lead Holter monitor. Blood samples for determination of ceftolozane, tazobactam, and the M1 metabolite of tazobactam levels were obtained at prespecified time intervals prior to and following each electrocardiogram (ECG) reading on dosing days. Plasma levels of ceftolozane, tazobactam, and its metabolite M1 were determined by LC/MS/MS assay.

| Compound | BSV % (RSE %) of CL ([1]; ESRD) | BSV % (RSE %) of V2 ([1]; ESRD) | BSV % (RSE %) of log-scale coefficient of hemodialysis on CL ([1]; ESRD) | Log-scale coefficient of hemodialysis on CL, mean estimate ([1]; ESRD) | Log-scale coefficient of hemodialysis on Vc, mean estimate ([1]; ESRD) | increase of CL by HD ([1]; ESRD) [fold] | increase of Vc by HD ([1]; ESRD) [fold] | V2, volume of distribution for peripheral compartment, mean estimate ([1]; human) | apparent terminal half-life ([1]; human) | apparent volume of distribution for the central compartment with hemodialysis ([1]; human) | clearance with hemodialysis ([1]; human) | half-life ([1]; human) | Tmax [2] [min] | clearance [2] [mL/min] | Vd [2] [L] | half-life [2] [min] | AUC higher in females compared to males [2] [%] | CL, mean (CV %) [2] | Vss, mean (CV %) [2] | t1/2, mean (CV %) [2] | further results |
| --- | --- | --- | --- | --- | --- | --- | --- | --- | --- | --- | --- | --- | --- | --- | --- | --- | --- | --- | --- | --- | --- |
| Cn1c(N)c(NC(=O)NCCN)c[n+]1CC1=C(C(=O)O)N2C(=O)[C@@H](NC(=O)/C(=N\OC(C)(C)C(=O)O)c3nsc(N)n3)[C@H]2SC1 [Ceftolozane, (6R,7R)-3-[(5-amino-4-{[(2-aminoethyl)carbamoyl]amino}-1-methyl-1H-pyrazol-2-ium-2-yl)methyl]-7-({(2Z)-2-(5-amino-1,2,4-thiadiazol-3-yl)-2-[(1-carboxy-1-methylethoxy)imino]acetyl}amino)-8-oxo-5-thia-1-azabicyclo[4.2.0]oct-2-ene-2-carboxylate] | 52.2 (29.2) % | 48.4 (29.9) % | 69.6 (29.8) % | 4.09 and 4.1 | 1.54 and 1.5 | 60 | 4.7 | 11.8 | about 40 hours | about 28 L | about 20 L/hr | about 2 hours | 40 | 92.8 | 13.5 | 137 | 22 | 5.50 (17) L/h | 13.7 (20) L | 2.72 (21) h | BSV % (RSE %) of CL2 ([1]; ESRD): 35.9 (41.9) %; BSV % (RSE %) of log-scale coefficient of hemodialysis on Vc ([1]; ESRD): 40.0 (34.7) %; Vc, volume of distribution for central compartment, mean estimate ([1]; human): 6 FIXED L; tmax, median (minimum, maximum) [2]: 0.667 (0.667, 1.18) h |
| C[C@]1(Cn2ccnn2)[C@H](C(=O)O)N2C(=O)C[C@H]2S1(=O)=O [Tazobactam, tazobactam] | 142 (29.3) % | 24.3 (39.8) % | 29 (31.4) % | 1.89 and 1.9 | 0.434 and 0.43 | 6.6 | 1.5 | 6.55 | about 4 hours | about 16 L | about 20 L/hr | about 1 hours | 40 | 368 | 18.2 | 52.2 | 19 | 21.2 (19) L/h | 19.3 (22) L | 1.05 (17) h | BSV % (RSE %) of Vc ([1]; ESRD): 398 (34.3) %; tmax, median (minimum, maximum) [2]: 0.667 (0.667, 1.17) h |
